“Also recorded” adds a separate entry of the source.
Legend:
[1] = system: rats; test: Local administration of 18-MC into brain sites: drug self-administration and responding for sucrose; type: in vivo, rat
Excerpt: FIG. 8 is a graph showing effects of local infusion of 18-MC into the basolateral amygdala on methamphetamine self-administration and responding for sucrose. Baseline methamphetamine infusions averaged (S.E.M.) 20.2±0.9 while baseline responding for sucrose averaged (S.E.M.) 27.1±2.1. Each data point represents the mean (S.E.M.) percent of baseline of 6-9 rats. (*=p<0.05-0.01).
Although the medial habenula and the interpeduncular nucleus are the brain regions having the highest concentrations of α3β4 nicotinic receptors, moderate densities of these receptors are localized in the ventral tegmental area, in the basolateral amygdala, and in the dorsolateral tegmentum (caudal pedunculopontine and laterodorsal tegmental nuclei). […] The basolateral amygdala has also been very much implicated in reward-related phenomena, and associated with both stimulants and sucrose. Accordingly, to further investigate brain sites mediating 18-MC's effects on drug self-administration, it was determined if local administration of 18-MC into the dorsolateral tegmentum or basolateral amygdala would alter drug self-administration, the other three sites having already been examined. As done previously, sucrose (15%) was used as a control, non-drug reinforcer. Previously, local administration of 18-MC had no effect on responding for sucrose regardless of whether it was infused into the medial habenula, interpeduncular nucleus, or ventral tegmental area. […] The neural substrates for 18-MC's effects on morphine and sucrose self-administration clearly appear to be different, although both may involve α3β4 nicotinic receptors.

[2] = Weight gain paradigm: water-drinking animals; type: in vivo, rat; conditions: 18-MC 20 mg/kg i.p. daily for two weeks
Experimental: Animals were allowed unlimited access to regular chow and water and were injected daily with 18-MC (20 mg/kg, i.p.) or vehicle for two weeks. Body weights were recorded immediately prior to injections and were also recorded for an additional week upon cessation of 18-MC treatment.
For the weight gain experiment, the data for all four treatment groups from days 1-21 were analyzed using two-way ANOVA, with treatment and time as main factors. Furthermore, the data for the first two weeks and the last week for water-vehicle, water-18-MC and sucrose 18-MC were analyzed separately using two-ANOVA, with treatment and time as main factors. Post-hoc comparison tests (Fisher LSD tests) were conducted when appropriate.

[3] = biological target: α3β4 nicotinic receptors (Homo sapiens, UniProt P30926+P32297); conditions: cited from earlier work
[4] = system: morphine-experienced rats; conditions: cited from earlier work
[5] = system: rats; conditions: systemic pretreatment; cited from earlier work
[6] = system: rats; test: Drug self-administration and water-reinforced responding in rats (earlier studies); type: in vivo, rat
Experimental: Other work has extended the “anti-addictive” effect of 18-MC to oral intake of ethanol. In all cases, these effects last for at least 24 hours. […] Unlike 18-MC, ibogaine and many other iboga alkaloid congeners (approximately 30 tested) decrease responding for water as well as for drugs. And it was precisely this unique specificity that led to development and study of 18-MC.

[7] = system: rats; test: Ad libitum sucrose intake over 24 hours (choice of sucrose or water); type: in vivo, rat
Experimental: FIG. 9 is a graph showing effects of 18-MC (10, 20, 40 mg/kg i.p.) on consumption of sucrose. Each bar represents mean 24 hour consumption of 5% sucrose solution expressed as percent of baseline (S.E.M.): *=p<0.05.
As described above, systemic 18-MC can decrease operant responding for sucrose and local administration of 18-MC into the dorsolateral tegmentum can also do so. These findings, which were unanticipated, led to investigation of the possibility that 18-MC might be useful in decreasing intake of sweet substances when available ad libitum along with normal rat chow. Rats offered a choice of drinking sucrose (15%) or water have strong preferences (70-80%) for sucrose. […] Whether 18-MC's effect on sucrose intake has a consequence in terms of body weight regulation was explored in a subsequent study. Rats given unlimited access to sucrose (30%) for two weeks gained excessive weight, consistent with other studies of sucrose-induced obesity. […] 18-MC had no effect on the body weight of “normal” rats having only water available.

[8] = system: rats; conditions: cited from earlier work

Chain of α3β4 nicotinic receptors (P32297 32-505): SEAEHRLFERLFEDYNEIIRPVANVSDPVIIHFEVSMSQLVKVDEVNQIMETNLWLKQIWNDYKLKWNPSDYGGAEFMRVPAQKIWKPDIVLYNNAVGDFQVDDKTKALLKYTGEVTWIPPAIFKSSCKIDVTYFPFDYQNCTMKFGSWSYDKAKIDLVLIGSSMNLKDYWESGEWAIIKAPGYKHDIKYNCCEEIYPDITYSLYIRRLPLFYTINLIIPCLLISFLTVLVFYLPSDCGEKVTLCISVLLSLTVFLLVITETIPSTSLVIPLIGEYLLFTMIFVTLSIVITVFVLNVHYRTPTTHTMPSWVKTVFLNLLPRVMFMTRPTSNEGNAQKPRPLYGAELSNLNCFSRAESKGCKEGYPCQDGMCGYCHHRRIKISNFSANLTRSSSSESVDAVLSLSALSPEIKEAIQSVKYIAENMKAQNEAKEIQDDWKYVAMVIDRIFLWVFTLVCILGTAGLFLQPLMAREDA
Chain of α3β4 nicotinic receptors (P30926 22-498): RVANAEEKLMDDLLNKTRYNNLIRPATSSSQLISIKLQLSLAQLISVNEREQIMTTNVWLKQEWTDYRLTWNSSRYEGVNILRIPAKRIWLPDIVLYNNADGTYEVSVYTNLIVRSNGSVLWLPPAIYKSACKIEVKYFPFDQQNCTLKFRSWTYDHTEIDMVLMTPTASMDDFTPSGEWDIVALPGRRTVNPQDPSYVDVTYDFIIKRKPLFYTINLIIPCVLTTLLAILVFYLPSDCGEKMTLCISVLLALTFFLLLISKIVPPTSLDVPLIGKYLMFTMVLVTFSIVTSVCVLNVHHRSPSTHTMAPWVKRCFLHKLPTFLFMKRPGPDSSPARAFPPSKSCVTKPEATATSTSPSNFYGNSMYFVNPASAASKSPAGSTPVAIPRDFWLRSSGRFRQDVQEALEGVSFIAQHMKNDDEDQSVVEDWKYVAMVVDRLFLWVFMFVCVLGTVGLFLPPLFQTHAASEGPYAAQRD

## COCC[C@H]1CC2CN3CCc4c([nH]c5ccccc45)[C@](C(=O)OC)(C2)[C@H]13 [18-MC, 18-methoxycoronaridine]
[1]; infused into the medial habenula, interpeduncular nucleus, or ventral tegmental area (previous work)
  responding for sucrose: no effect
[1]; local administration into the basolateral amygdala
  methamphetamine self-administration: decreased
[1]; local administration into the basolateral amygdala, 15% sucrose
  responding for sucrose: decreased
[1]; local administration into the dorsolateral tegmentum
  morphine or methamphetamine self-administration: no effect
[1]; local administration into the dorsolateral tegmentum, 15% sucrose
  responding for sucrose: decreased
[2]
  body weight of rats maintained on water and chow: no effect
[3]
  action at α3β4 nicotinic receptors: selective antagonist; also recorded: noncompetitive antagonist
[4]
  sensitized morphine-induced dopamine release in the nucleus accumbens: attenuate
[5]
  intravenous self-administration of morphine and other drugs: reduce
[6]; 20 mg/kg, i.p., depending on the drug
  decrease of drug self-administration: 40-80%
[6]; at times when self-administration is decreased
  motor effects: no motor effects
[6]; rat, in vivo
  duration of effects on drug self-administration: at least 24 hours
[6]; rat, in vivo, po
  effect on oral intake of ethanol: anti-addictive
[6]; rats
  cocaine, methamphetamine and nicotine self-administration: decreases
  morphine self-administration: dose-dependently decreases
[6]; same doses that decrease drug self-administration
  responding for water (non-drug reinforcer): do not affect
[7]; 18-MC 10-40 mg/kg i.p.
  water intake over the 24 hours following administration: no significant effect
[7]; 18-MC 10-40 mg/kg i.p., sucrose (15%) or water
  intake of sucrose over the 24 hours following administration: decreased
[7]; dose range 10-40 mg/kg i.p.
  ceiling dose beyond which no further effect on ad libitum sucrose intake: 10 mg/kg
[8]
  signs of acute opioid withdrawal: alleviate

Reference: patent US8993559B2, “Use of ibogamine congeners for treating obesity” (Albany Medical College, priority 2008, dated 2015)
